In US20260315609A1, “MIXED VASOPRESSIN RECEPTOR AGONIST-ANTAGONIST FOR TREATING END-STAGE LIVER DISEASE AND COMPLICATIONS ASSOCIATED THEREOF” (FERRING B.V., priority 2022, published 2026):
Read-outs that look alike come from different tables or passages of the source. Starred links: 1 amine or outer side, 2 acyl side, 3 side chain; linkers in the order of their positions; H or OH if unused. Positions of bridges follow the written chain, without caps; N, C: chain ends. Non-standard residues stand in square brackets, D forms with d. Residues, ends and D or L forms follow the SMILES beside them. Chains are numbered I, II in the order given. *: point of attachment. isoGln = NC(=O)[C@H](CCC(=O)[*:2])N[*:1]; εLys = N[C@@H](CCCCN[*:1])C(=O)[*:2]; Dab = NCC[C@H](N)C(=O)O; PhAc = O=C(Cc1ccccc1)*

What was measured:
skin blood flow (SBF) = assay: Skin blood flow (SBF), laser Doppler, anesthetized Wistar rats, IV infusion; type: in vivo, rat
Procedure: This study was performed over multiple experiments using a total of 48 adult male Wistar rats. […] Compounds were infused via an IV catheter at six sequentially increasing doses.
On the day of experimentation animals were anesthetized and instrumented. A tracheostomy was performed to allow assisted respiration and three catheters were placed. Laser Doppler probes were positioned on a shaved portion of the animal's lower abdominal skin for blood-flow measurements. Ventilation was initiated, and baseline readings for the primary parameter of skin blood flow (SBF) were recorded. Readings for the secondary parameters were also recorded: (1) blood lactate concentration, (2) mean arterial pressure (MAP), and (3) blood pH. Data collection was performed continuously for SBF and MAP using NOTOCORD-hem™ (Instem), and blood samples were taken at each compound dose and immediately analyzed using an i-STAT® meter.
After the final dose administration, animals were euthanized and a final SBF measurement was recorded to detect any signal from the flow probe after the animal's heart stopped beating to control for a signal not attributed to blood flow. Animal body temperature, pulse, and ventilation adequacy were monitored throughout the procedure.

[1] = PK of Compound 1, once daily subcutaneous (bolus) injection for 5 days in healthy men and women (Period 2); type: in vivo, human
Excerpt: (§1) In some instances, endpoints of the study were: vital signs (e.g., supine blood pressure, pulse, and body temperature), electrocardiogram (ECG) (e.g., intervals, rhythm, and morphology), cardiac function (e.g., cardiac output using echocardiography), peripheral blood flow/tissue perfusion (e.g., by skin color), venous blood gases (e.g., lactate), urinary output, clinical chemistry, hematology, hemostasis, and urinalysis, adverse events (AEs) (e.g., type, frequency, and intensity), pharmacokinetics (e.g., AUC, AUCt, AUCτ, % Extrap AUC, Cmax, tmax, CL, Vz, t1/2, MRT, Vss, F, Ae, and CLR), and metabolite pattern in plasma and urine.

[2] = M1 formation, subcutaneous infusion in mini-pigs; set-up: species or system mini-pig; settings: minipig, in vivo, sc, s.c. infusion
[3] = tested on: CCl4-induced rat model of cirrhosis and ascites; assay: CCl4-induced cirrhosis and ascites rats, cohort 3 (single IV bolus), hemodynamics and serum aldosterone; type: in vivo; settings: 100 μg/kg IV
Procedure: Animals: 90 male Wistar rats (Charles River Laboratories, Espana S.A) weighing 200-220 grams at the time of receipt were subjected to a cirrhosis induction program; high dose CCl4 was administered by inhalation twice weekly (Monday and Friday) and phenobarbital (0.3 g/L) was added to drinking water. In some instances, liver damage in this model is caused by hepatotoxic CCl4 metabolites produced in the liver. In some instances, phenobarbital induction of the microsomal enzyme oxidizing system exaggerates the intensity of the hepatic necrosis. […] Animals were allowed free access to food and water throughout the study.
The study consisted of 3 treatment cohorts, as detailed in Table 10. Animals developing and maintaining ascites for 2 weeks were randomly assigned to treatment groups. Ringer Braun saline solution was used as vehicle. IV bolus were administered via femoral veins.
Cohort 3: Animals were anesthetized and the left femoral artery and vein catheterized. The femoral artery catheter was connected to a transducer for mean arterial pressure (MAP) measurements. The right jugular vein was isolated and a catheter placed in the right atrium; a thermocouple was advanced through the aortic arch via left carotid approach to monitor the intraarterial temperature and cardiac output (CO). MAP and CO were measured and recorded in a multichannel system (Powerlab). CO was measured by thermodilution following the administration of a 200 μL/animal bolus of Ringer solution (20-23° C.) into the right atrium using a spring-loaded Hamilton syringe. A midline abdominal incision (2 cm) was created and the portal vein cannulated through the ileocolic vein to measure portal pressure (PP). Constant infusion (2 mL/hr) of Ringer solution was given through the femoral vein. After 30 minutes of infusion, baseline 30 minute values for PP, MAP, CO, and systemic vascular resistance (SVR) were recorded. In the middle of the 30 minute data collection, a blood sample (0.8 mL) was obtained via the femoral artery catheter for serum aldosterone measurements. […] Five 30 minute data collections were recorded for PP, MAP, CO, and SVR over 150 minutes, with blood samples collected in the middle of each 30 minute data collection. Following blood sampling, packed cells were reconstituted with Ringer solution and reinjected over a period of 3 minutes.

[4] = Excretion of Compound 1 in urine of healthy subjects; type: in vivo, human; settings: for dose excreted: human, urine, read-out: fraction of dose excreted unchanged in urine
Procedure: Urinalysis was performed locally by means of a dip-stick test. […] In case any result of the dipstick was abnormal and clinically significant, a new urine test was to be performed. If the abnormal result was confirmed, further examination could be initiated at the discretion of the Investigator. Clinically significant abnormal findings were reported as AEs. The metabolite pattern of Compound 1 in plasma and urine were measured.
as §1

[5] = s.c. 0.1 mg, 1st administration
[6] = s.c. 0.1 mg, 5th administration
[7] = s.c. 0.3 mg, 1st administration
[8] = s.c. 0.3 mg, 5th administration

Structure (SMILES): CC[C@H](C)[C@@H]1NC(=O)[C@H](Cc2ccccc2)NC(=O)[C@@H](N)CSSC[C@@H](C(=O)N2CCC[C@H]2C(=O)N[C@@H](CCNC(=O)[C@@H](N)CCCCNC(=O)[C@H](CCCCNC(C)=O)NC(=O)CC[C@H](NC(=O)[C@H](CCCNC(=N)N)NC(=O)[C@@H]2CCCN2C(=O)[C@H](C)NC(=O)[C@H](CC(N)=O)NC(=O)[C@H](CCC(N)=O)NC(=O)[C@H](Cc2ccccc2)NC(=O)[C@@H](Cc2ccc(OC)cc2)NC(=O)Cc2ccccc2)C(N)=O)C(=O)NCC(N)=O)NC(=O)[C@H](CC(N)=O)NC(=O)[C@H](CCC(N)=O)NC1=O [Compound 1, Glycinamide, L-cysteinyl-L-phenylalanyl-L-isoleucyl-L-glutaminyl-L-asparaginyl-L-cysteinyl-L-prolyl-N4-(phenylacetyl-O-methyl-D-tyrosyl-L-phenylalanyl-L-glutaminyl-L-asparaginyl-L-alanyl-L-prolyl-L-arginyl-L-isoglutamyl-N5-acetyl-L-lysyl-L-ε-lysyl)-L-2,4-diaminobutyryl-, cyclic (1→6)-disulfide] (I: H-CFIQNCP[Dab]G-NH2 / II: PhAc-[dY](Me)FQNAPR[isoGln]K(Ac)[εLys]; disulfide I:1-I:6; amide I:8-II:C)
- SBF ED50 (skin blood flow (SBF)): 25.2 pmol/kg/min
- SBF Emax (skin blood flow (SBF)): 38.6%
- greatest percent change from baseline in skin flow (skin blood flow (SBF)): −42.1%
- bioavailability ([1]; repeated s.c. injections, versus i.v.): about 18%
- terminal half-life (summary) ([1]; s.c.): about 1 hours
- tmax (summary) ([1]; s.c.): about 0.3 hours
- AUC, geometric mean [1, 5]: 0.87 (22) h*ng/mL
- AUC, mean [1, 5]: 0.88 (0.19) h*ng/mL
- Cmax, geometric mean [1, 5]: 0.43 (41) ng/mL
- Cmax, mean [1, 5]: 0.46 (0.17) ng/mL
- tmax, mean [1, 5]: 0.3 (0.1) h
- AUC, geometric mean [1, 6]: 0.70 (3) h*ng/mL
- AUC, mean [1, 6]: 0.70 (0.02) h*ng/mL
- Cmax, geometric mean [1, 6]: 0.42 (28) ng/mL
- Cmax, mean [1, 6]: 0.43 (0.14) ng/mL
- tmax, mean [1, 6]: 0.3 (0.1) h
- AUC, geometric mean [1, 7]: 6.40 (109) h*ng/mL
- AUC, mean [1, 7]: 7.90 (5.01) h*ng/mL
- Cmax, geometric mean [1, 7]: 2.45 (98) ng/mL
- Cmax, mean [1, 7]: 2.99 (2.03) ng/mL
- t1/2, mean [1, 7]: 1.6 (0.7) h
- tmax, mean [1, 7]: 0.4 (0.5) h
- AUC, geometric mean [1, 8]: 2.77 (113) h*ng/mL
- AUC, mean [1, 8]: 3.36 (2.69) h*ng/mL
- Cmax, geometric mean [1, 8]: 1.42 (58) ng/mL
- Cmax, mean [1, 8]: 1.52 (0.79) ng/mL
- tmax, mean [1, 8]: 0.4 (0.2) h
- tmax, median [1, 8]: 24 min
- median tmax ([1]; s.c. 0.1 and 0.3 mg, 1st and 5th administrations): 18 to 24 min
- metabolised [2]: < 20%
- Cardiac output - portal pressure ([3]; 0 min): 173 mL/min
- Mean Arterial Pressure ([3]; 0 min): 79 mmHg
- Systemic Vascular Resistance ([3]; 0 min): 0.49 mmHg * min/mL
- Cardiac output - portal pressure ([3]; 30 min): 178 mL/min
- Mean Arterial Pressure ([3]; 30 min): 84 mmHg
- Portal Pressure ([3]; 30 min): 13.9 mmHg
- Systemic Vascular Resistance ([3]; 30 min): 0.54 mmHg * min/mL
- Cardiac output - portal pressure ([3]; 60 min): 177 mL/min
- Mean Arterial Pressure ([3]; 60 min): 91 mmHg
- Portal Pressure ([3]; 60 min): 12.8 mmHg
- Systemic Vascular Resistance ([3]; 60 min): 0.54 mmHg * min/mL
- Cardiac output - portal pressure ([3]; 90 min): 158 mL/min
- Mean Arterial Pressure ([3]; 90 min): 98 mmHg
- Portal Pressure ([3]; 90 min): 11.5 mmHg
- Systemic Vascular Resistance ([3]; 90 min): 0.71 mmHg * min/mL
- Cardiac output - portal pressure ([3]; 120 min): 140 mL/min
- Mean Arterial Pressure ([3]; 120 min): 93 mmHg
- Portal Pressure ([3]; 120 min): 10.6 mmHg
- Systemic Vascular Resistance ([3]; 120 min): 0.72 mmHg * min/mL
- Cardiac output - portal pressure ([3]; 150 min): 139 mL/min
- Mean Arterial Pressure ([3]; 150 min): 92 mmHg
- Portal Pressure ([3]; 150 min): 9.7 mmHg
- Systemic Vascular Resistance ([3]; 150 min): 0.74 mmHg * min/mL
- reduction in serum aldosterone ([3]; end of study): greater than 50%
- Serum Aldosterone ([3]; end of study (vehicle 786)): 264 ng/dL
- dose excreted ([4]; iv): < 10%
- dose excreted ([4]; sc): < 5%
- amount excreted in urine, 4-8 hours ([4]; i.v. 0.1 mg): about 3 μg
- amount excreted in urine, 4-8 hours ([4]; i.v. 0.3 mg): ~9 µg
- amount excreted in urine, 4-8 hours ([4]; i.v. 0.45 mg): ~16 µg
- amount excreted in urine, 4-8 hours ([4]; i.v. 0.6 mg): ~24 µg
- amount excreted in urine, 4-8 hours ([4]; i.v. 0.9 mg): ~37 µg
- amount excreted in urine, first 4 hours [4, 5]: about 2 μg
- amount excreted in urine, first 4 hours [4, 6]: about 0.3 μg
- amount excreted in urine, first 4 hours [4, 7]: ~3 µg
- amount excreted in urine, first 4 hours [4, 8]: ~1.5 µg
